The values that follow come from patent US11584714B2 (priority 2018, dated 2023).

Structures can show the parent of a compound that is named as a salt. Where two headings read alike, the source gives them in different places.

Common to all, as to format: biochemical
In one assay the target is mMASP-2 (Mus musculus (Mouse), UniProt Q91WP0). Description: Enzymatic inhibition of mMASP-2.
The next assay concerns Lectin Pathway. Nature of the assay: Lectin pathway activation assay in human serum (mannan-coated ELISA, C3c detection). The following applies: 1% human serum. In general terms: In an ELISA, binding on a coated surface is turned into a signal by an enzyme label.
The target of the next assay is MASP-2 (CCP1-CCP2-SP) (Homo sapiens (Human), UniProt O00187). Description: biochemical. The following applies: for Ki: read-out: MASP-2 Ki; for MASP-2 vs. thrombin selectivity: selectivity for MASP-2 inhibition versus thrombin.
Sequence of MASP-2 (CCP1-CCP2-SP) (O00187 445-686): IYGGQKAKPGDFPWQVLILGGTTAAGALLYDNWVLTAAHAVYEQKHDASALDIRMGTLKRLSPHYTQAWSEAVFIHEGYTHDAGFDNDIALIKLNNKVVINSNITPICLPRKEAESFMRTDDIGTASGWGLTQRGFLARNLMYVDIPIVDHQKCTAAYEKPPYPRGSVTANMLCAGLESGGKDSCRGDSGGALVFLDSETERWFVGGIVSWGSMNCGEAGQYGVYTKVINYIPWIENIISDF
A further assay deals with human α-thrombin (Homo sapiens (Human), UniProt P00734). Nature of the assay: Enzymatic assay for thrombin (Boc-VPR-AMC substrate).

Sequence of mMASP-2 (Q91WP0 20-685): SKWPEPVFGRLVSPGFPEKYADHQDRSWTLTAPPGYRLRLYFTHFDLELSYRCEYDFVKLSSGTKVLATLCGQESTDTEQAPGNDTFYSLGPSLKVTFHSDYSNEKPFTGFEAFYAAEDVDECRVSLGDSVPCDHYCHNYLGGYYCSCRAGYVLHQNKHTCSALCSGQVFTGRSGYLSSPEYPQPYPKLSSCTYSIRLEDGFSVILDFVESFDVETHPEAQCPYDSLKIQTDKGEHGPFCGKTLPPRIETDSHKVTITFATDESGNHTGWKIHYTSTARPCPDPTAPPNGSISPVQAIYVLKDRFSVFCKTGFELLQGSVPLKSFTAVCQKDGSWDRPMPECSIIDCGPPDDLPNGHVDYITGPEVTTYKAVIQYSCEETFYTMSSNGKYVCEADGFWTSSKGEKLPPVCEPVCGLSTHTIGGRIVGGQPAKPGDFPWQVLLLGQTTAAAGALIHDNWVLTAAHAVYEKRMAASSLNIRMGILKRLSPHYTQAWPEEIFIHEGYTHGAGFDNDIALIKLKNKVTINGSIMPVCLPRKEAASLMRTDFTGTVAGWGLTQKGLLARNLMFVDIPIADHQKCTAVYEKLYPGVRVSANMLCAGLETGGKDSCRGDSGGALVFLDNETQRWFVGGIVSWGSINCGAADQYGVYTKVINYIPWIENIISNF

For orientation: Ki means the equilibrium dissociation constant of an inhibitor or competing ligand from its target. As a reminder, the IC50 is the midpoint of a concentration-inhibition curve. `Cc1nc(N)ccc1CNC(=O)[C@H](C)NC(=O)[C@H]1C[C@@H](Cc2ccccc2)CCN1` [compound 1353, (2R,4S)—N—((S)-1-(((6-Amino-2-methylpyridin-3-yl)methyl)amino)-1-oxopropan-2-yl)-4-benzylpiperidine-2-carboxamide Dihydrochloride]: the Ki on mMASP-2 (read-out: mMASP-2 Ki) is less than 500 nM; on MASP-2 (CCP1-CCP2-SP), less than 500 nM; on human α-thrombin (read-out: Thrombin Ki), less than 0.5 µM. This compound also returned an IC50 with Lectin Pathway of less than 50 nM. Besides, the “MASP-2 vs. thrombin selectivity” value on MASP-2 (CCP1-CCP2-SP) is “*** (≥25 to <100-fold)”.

For the compound `Cc1nc(N)ccc1CNC(=O)[C@H](CCC(N)=O)NC(=O)[C@H]1C[C@H](Cc2ccccc2)CN1` [compound 1382, (S)—NI-((6-Amino-2-methylpyridin-3-yl)methyl)-2-((2R,4S)-4-benzylpyrrolidine-2-carboxamido)pentanediamide Di-trifluoroacetate salt], the Ki was 2500 to 10000 nM on mMASP-2, less than 500 nM at MASP-2 (CCP1-CCP2-SP) and greater than 25 µM on human α-thrombin (read-out: Thrombin Ki). The IC50 with Lectin Pathway lay in the range of 5000 to 50000 nM. Further, the “MASP-2 vs. thrombin selectivity” value at MASP-2 (CCP1-CCP2-SP) is given as “*** (≥25 to <100-fold)”.

`C[C@H](NC(=O)[C@H]1C[C@H](Cc2cccc3ccccc23)CN1)C(=O)NCc1cc(Cl)ccc1-n1cnnn1` [compound 1414, (2R,4S)—N—((S)-1-((5-Chloro-2-(1H-tetrazol-1-yl)benzyl)amino)-1-oxopropan-2-yl)-4-(naphthalen-1-ylmethyl)pyrrolidine-2-carboxamide Hydrochloride]: the Ki at mMASP-2 (read-out: mMASP-2 Ki) is less than 500 nM; at MASP-2 (CCP1-CCP2-SP), less than 500 nM; at human α-thrombin (read-out: Thrombin Ki), less than 0.5 µM. In the assay on Lectin Pathway, this compound came in with an IC50 of 50 to 500 nM. In addition, the “MASP-2 vs. thrombin selectivity” value at MASP-2 (CCP1-CCP2-SP) is listed as “−− (<1.0-fold)”.

Take `Cc1nc(N)ccc1CNC(=O)[C@H](C)NC(=O)[C@H]1C[C@H](Cc2ccc(Cl)s2)CN1` [compound 1454, (2R,4R)—N—((S)-1-(((6-Amino-2-methylpyridin-3-yl)methyl)amino)-1-oxopropan-2-yl)-4-((5-chlorothiophen-2-yl)methyl)pyrrolidine-2-carboxamide Dihydrochloride]: the Ki on mMASP-2 (read-out: mMASP-2 Ki) is less than 500 nM; on MASP-2 (CCP1-CCP2-SP), less than 500 nM; on human α-thrombin (Thrombin Ki (μM)), 0.5 to 2.5 µM. Besides, the IC50 in the assay on Lectin Pathway lay within 500 to 5000 nM. The “MASP-2 vs. thrombin selectivity” value at MASP-2 (CCP1-CCP2-SP) is on record as “*** (≥25 to <100-fold)”.

Regarding `Cc1nc(N)ccc1CNC(=O)[C@H](C)NC(=O)[C@H]1C[C@H](Oc2ccccc2)CN1` [compound 1446, (2R,4S)—N—((S)-1-(((6-Amino-2-methylpyridin-3-yl)methyl)amino)-1-oxopropan-2-yl)-4-phenoxypyrrolidine-2-carboxamide], the Ki on mMASP-2 (read-out: mMASP-2 Ki) was 500 to 2500 nM; on MASP-2 (CCP1-CCP2-SP), less than 500 nM; at human α-thrombin (read-out: Thrombin Ki) it was greater than 25 µM. This compound also showed an IC50 in the assay on Lectin Pathway of 5000 to 50000 nM. Also, the “MASP-2 vs. thrombin selectivity” value on MASP-2 (CCP1-CCP2-SP) is “**** (≥100-fold)”.

For `Cc1cc(Cl)cc(CNC(=O)[C@H](C)NC(=O)[C@H]2C[C@@H](Cc3ccccc3)CCN2)c1O` [compound 1363, (2R,4S)-4-Benzyl-N-((S)-1-((5-chloro-2-hydroxy-3-methylbenzyl)amino)-1-oxopropan-2-yl)piperidine-2-carboxamide Hydrochloride], the Ki was less than 500 nM at mMASP-2 (read-out: mMASP-2 Ki), less than 500 nM on MASP-2 (CCP1-CCP2-SP) and 2.5 to 10 µM on human α-thrombin (Thrombin Ki (μM)). Moreover, in the assay with Lectin Pathway, the IC50 was in the range of 50 to 500 nM. Moreover, the “MASP-2 vs. thrombin selectivity” value at MASP-2 (CCP1-CCP2-SP) is given as “**** (≥100-fold)”.

For the compound `C[C@H](NC(=O)[C@@H](CCc1ccccc1)NCCc1ccc(Cl)cc1)C(=O)NCc1ccc(C(=N)N)cc1` [compound 1339, (R)—N—((S)-1-((4-Carbamimidoylbenzyl)amino)-1-oxopropan-2-yl)-2-((4-chlorophenethyl)amino)-4-phenylbutanamide Di-trifluoroacetate salt], the Ki at mMASP-2 (read-out: mMASP-2 Ki) was less than 500 nM; at MASP-2 (CCP1-CCP2-SP), less than 500 nM; on human α-thrombin (read-out: Thrombin Ki), less than 0.5 µM. Moreover, in the assay on Lectin Pathway, the IC50 is less than 50 nM. Moreover, the “MASP-2 vs. thrombin selectivity” value on MASP-2 (CCP1-CCP2-SP) is on record as “** (≥5.0 to <25-fold)”.
